# Results as given in ChEMBL document CHEMBL3885881, “DrugMatrix”.
# Species: Rattus norvegicus
# Test: DrugMatrix - Regimen: Daily Repeat
# Format: toxicity, organism-based, Sprague-Dawley
# Set-up: regimen Daily Repeat, gender Male, age 6-8 weeks
# Settings: in vivo, sc, […], route mini-PUMP - SUBCUTANEOUS, dose 4.2 mg/Kg, vehicle 100 % SALINE; for ABSOLUTE EOSINOPHIL / ABSOLUTE LYMPHOCYTE / ABSOLUTE MONOCYTE / ABSOLUTE SEGMENTED NEUTROPHIL / BASOPHIL / EOSINOPHIL / ERYTHROCYTE COUNT / HEMATOCRIT / HEMOGLOBIN / LEUKOCYTE COUNT / LYMPHOCYTE / MEAN CORPUSCULAR HEMOGLOBIN / MEAN CORPUSCULAR HEMOGLOBIN CONCENTRATION / MEAN CORPUSCULAR VOLUME / MONOCYTE / NEUTROPHIL / NUCLEATED RED BLOOD CELLS / PLATELET COUNT / ABSOLUTE BASOPHIL: tissue Blood; for ALANINE AMINOTRANSFERASE / ALBUMIN / ALKALINE PHOSPHATASE / ASPARTATE AMINOTRANSFERASE / BLOOD UREA NITROGEN / CARBON DIOXIDE / CHLORIDE / CHOLESTEROL / CREATININE / GLUCOSE / LACTATE DEHYDROGENASE / LIPASE / PHOSPHORUS / POTASSIUM / SODIUM / TOTAL BILIRUBIN / TOTAL PROTEIN / URIC ACID: tissue Plasma
# [1] = 72 h, dose level M1, time 3 day
# [2] = 120 h, dose level M1, time 5 day
structure (smiles),measurement,setting,value
CC(C)NCC(O)c1ccc(O)c(O)c1 (stereo not given) [ISOPROTERENOL],ABSOLUTE EOSINOPHIL,[1],46 CELLS/uL
same,ABSOLUTE LYMPHOCYTE,[1],13359 CELLS/uL
same,ABSOLUTE MONOCYTE,[1],389.67 CELLS/uL
same,ABSOLUTE SEGMENTED NEUTROPHIL,[1],972 CELLS/uL
same,BASOPHIL,[1],0%
same,EOSINOPHIL,[1],0.33%
same,ERYTHROCYTE COUNT,[1],5.5 x10E6/uL
same,HEMATOCRIT,[1],32.97%
same,HEMOGLOBIN,[1],12.13 G/DL
same,LEUKOCYTE COUNT,[1],14.77 x10E3/uL
same,LYMPHOCYTE,[1],90.33%
same,MEAN CORPUSCULAR HEMOGLOBIN,[1],22.1 pg
same,MEAN CORPUSCULAR HEMOGLOBIN CONCENTRATION,[1],36.8 G/DL
same,MEAN CORPUSCULAR VOLUME,[1],60.03 fL
same,MONOCYTE,[1],2.67%
same,NEUTROPHIL,[1],6.67%
same,NUCLEATED RED BLOOD CELLS,[1],0.33 /100WBC
same,PLATELET COUNT,[1],1142.67 x10E3/uL
same,ALANINE AMINOTRANSFERASE,[1],50.67 u/L
same,ALBUMIN,[1],3.93 G/DL
same,ALKALINE PHOSPHATASE,[1],337 u/L
same,ASPARTATE AMINOTRANSFERASE,[1],73.67 u/L
same,BLOOD UREA NITROGEN,[1],13.33 mg/dL
same,CARBON DIOXIDE,[1],25.33 mmol/L
same,CHLORIDE,[1],103.67 MEQ/L
same,CHOLESTEROL,[1],77.33 mg/dL
same,CREATININE,[1],0.18 mg/dL
same,GLUCOSE,[1],140.33 mg/dL
same,LACTATE DEHYDROGENASE,[1],151 u/L
same,LIPASE,[1],9 u/L
same,PHOSPHORUS,[1],10.17 mg/dL
same,POTASSIUM,[1],7.09 MEQ/L
same,SODIUM,[1],146.4 MEQ/L
same,TOTAL BILIRUBIN,[1],0.2 mg/dL
same,TOTAL PROTEIN,[1],5.9 G/DL
same,URIC ACID,[1],2.33 mg/dL
same,ABSOLUTE BASOPHIL,[2],0 CELLS/uL
same,ABSOLUTE EOSINOPHIL,[2],84 CELLS/uL
same,ABSOLUTE LYMPHOCYTE,[2],11630 CELLS/uL
same,ABSOLUTE MONOCYTE,[2],485 CELLS/uL
same,ABSOLUTE SEGMENTED NEUTROPHIL,[2],2701 CELLS/uL
same,BASOPHIL,[2],0%
same,EOSINOPHIL,[2],0.5%
same,ERYTHROCYTE COUNT,[2],5.61 x10E6/uL
same,HEMATOCRIT,[2],34.6%
same,HEMOGLOBIN,[2],12.85 G/DL
same,LEUKOCYTE COUNT,[2],14.9 x10E3/uL
same,LYMPHOCYTE,[2],78.5%
same,MEAN CORPUSCULAR HEMOGLOBIN,[2],22.95 pg
same,MEAN CORPUSCULAR HEMOGLOBIN CONCENTRATION,[2],37.15 G/DL
same,MEAN CORPUSCULAR VOLUME,[2],61.75 fL
same,MONOCYTE,[2],3%
same,NEUTROPHIL,[2],18%
same,NUCLEATED RED BLOOD CELLS,[2],0.5 /100WBC
same,PLATELET COUNT,[2],1202 x10E3/uL
same,ALANINE AMINOTRANSFERASE,[2],57 u/L
same,ALBUMIN,[2],4.05 G/DL
same,ALKALINE PHOSPHATASE,[2],244.5 u/L
same,ASPARTATE AMINOTRANSFERASE,[2],74 u/L
same,BLOOD UREA NITROGEN,[2],11.5 mg/dL
same,CARBON DIOXIDE,[2],27 mmol/L
same,CHLORIDE,[2],104.5 MEQ/L
same,CHOLESTEROL,[2],70 mg/dL
same,CREATININE,[2],0.15 mg/dL
same,GLUCOSE,[2],152 mg/dL
same,LACTATE DEHYDROGENASE,[2],156 u/L
same,LIPASE,[2],8.5 u/L
same,PHOSPHORUS,[2],13.1 mg/dL
same,POTASSIUM,[2],6.73 MEQ/L
same,SODIUM,[2],149.4 MEQ/L
same,TOTAL BILIRUBIN,[2],0.15 mg/dL
same,TOTAL PROTEIN,[2],5.9 G/DL
same,URIC ACID,[2],2.25 mg/dL
same,ABSOLUTE BASOPHIL,"dose level M1, time 14 day",0 CELLS/uL
same,ABSOLUTE EOSINOPHIL,"dose level M1, time 14 day",0 CELLS/uL
same,ABSOLUTE LYMPHOCYTE,"dose level M1, time 14 day",12693.75 CELLS/uL
same,ABSOLUTE MONOCYTE,"dose level M1, time 14 day",445.5 CELLS/uL
same,ABSOLUTE SEGMENTED NEUTROPHIL,"dose level M1, time 14 day",2010.75 CELLS/uL
same,BASOPHIL,"dose level M1, time 14 day",0%
same,EOSINOPHIL,"dose level M1, time 14 day",0%
same,ERYTHROCYTE COUNT,"dose level M1, time 14 day",5.78 x10E6/uL
same,HEMATOCRIT,"dose level M1, time 14 day",35.65%
same,HEMOGLOBIN,"dose level M1, time 14 day",12.93 G/DL
same,LEUKOCYTE COUNT,"dose level M1, time 14 day",15.15 x10E3/uL
same,LYMPHOCYTE,"dose level M1, time 14 day",83.25%
same,MEAN CORPUSCULAR HEMOGLOBIN,"dose level M1, time 14 day",22.38 pg
same,MEAN CORPUSCULAR HEMOGLOBIN CONCENTRATION,"dose level M1, time 14 day",36.27 G/DL
same,MEAN CORPUSCULAR VOLUME,"dose level M1, time 14 day",61.73 fL
same,MONOCYTE,"dose level M1, time 14 day",3.25%
same,NEUTROPHIL,"dose level M1, time 14 day",13.5%
same,NUCLEATED RED BLOOD CELLS,"dose level M1, time 14 day",0 /100WBC
same,PLATELET COUNT,"dose level M1, time 14 day",856.5 x10E3/uL
same,ALANINE AMINOTRANSFERASE,"dose level M1, time 14 day",62.75 u/L
same,ALBUMIN,"dose level M1, time 14 day",4.12 G/DL
same,ALKALINE PHOSPHATASE,"dose level M1, time 14 day",336 u/L
same,ASPARTATE AMINOTRANSFERASE,"dose level M1, time 14 day",83.25 u/L
same,BLOOD UREA NITROGEN,"dose level M1, time 14 day",16.5 mg/dL
same,CARBON DIOXIDE,"dose level M1, time 14 day",32 mmol/L
same,CHLORIDE,"dose level M1, time 14 day",100.75 MEQ/L
same,CHOLESTEROL,"dose level M1, time 14 day",75.75 mg/dL
same,CREATININE,"dose level M1, time 14 day",0.21 mg/dL
same,GLUCOSE,"dose level M1, time 14 day",144 mg/dL
same,LACTATE DEHYDROGENASE,"dose level M1, time 14 day",122.25 u/L
same,LIPASE,"dose level M1, time 14 day",8.75 u/L
same,PHOSPHORUS,"dose level M1, time 14 day",13.35 mg/dL
same,POTASSIUM,"dose level M1, time 14 day",7.05 MEQ/L
same,SODIUM,"dose level M1, time 14 day",145.78 MEQ/L
same,TOTAL BILIRUBIN,"dose level M1, time 14 day",0.1 mg/dL
same,TOTAL PROTEIN,"dose level M1, time 14 day",6.1 G/DL
same,URIC ACID,"dose level M1, time 14 day",1.88 mg/dL
